Laboratory results published in paper PMC7489219 (Molecular Brain, 2020).
Counter-ions that a name gives are not always drawn.

system: T1, primary mouse cortical neurons; test: cells; set-up: Protection from NMDA-induced (30 uM, 10 min) neuronal death; Hoechst nuclear morphology by automated microscopy; conditions: Cortical neurone, 20 h, read-out: % inhibition, inhibition of NMDA-induced cell death (protection score), 30 min pre-treatment
T1 construct: primary cortical neurons, DIV 10
Summary of the method: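 On DIV 10, primary mouse cortical neurons were given compound at 10 μM for 30 min at 37 °C, then 30 μM NMDA for 10 min, washed, and kept 20 h with compound. Dead cells were scored by nuclear morphology, and % protection was derived from survival relative to vehicle + NMDA and untreated controls.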

SMILES	inhibition at 10 µM
CN[C@@H](C)[C@H]1[C@H](O)C[C@@]2(C)[C@@H]3CC[C@H]4C(C)(C)[C@@H](NC)CC[C@@]45C[C@@]35CC[C@]12C [Cyclovirobuxin D (Bebuxine)]	17.2%
CCCCC1C(=O)N(c2ccccc2)N(c2ccccc2)C1=O [Phenylbutazone (Butazolidin, Butatron)]	47.4%
O=C(CCc1ccc(O)cc1)c1c(O)cc(O)cc1O[C@@H]1O[C@H](CO)[C@@H](O)[C@H](O)[C@H]1O [Phlorizin (Phloridzin)]	-2.89%
Cc1cc2nc3c(=O)[nH]c(=O)nc-3n(C[C@H](O)[C@H](O)[C@H](O)CO)c2cc1C [Riboflavin (Vitamin B2)]	1.7%
COC(=O)C1=C(C)NC(C)=C(C(=O)OCC(C)C)C1c1ccccc1[N+](=O)[O-] (stereo not drawn) [Nisoldipine (Sular)]	-2.86%
COc1cc2nc(N(C)CCCNC(=O)C3CCCO3)nc(N)c2cc1OC (stereo not drawn) [Alfuzosin hydrochloride (Uroxatral)]	-0.34%
COC(=O)[C@H](c1ccccc1Cl)N1CCc2sccc2C1 [Clopidogrel (Plavix)]	-12%
Nc1ccn([C@@H]2O[C@H](CO)[C@@H](O)C2(F)F)c(=O)n1 [Gemcitabine HCl (Gemzar)]	-9.76%
C[C@@H](O)[C@H]1C(=O)N2C(C(=O)[O-])=C(SC3Cn4cnc[n+]4C3)[C@H](C)[C@H]12 (stereo partly drawn) [Biapenem]	3.3%
CN(C)c1ccc(C(=C2C=CC(=[N+](C)C)C=C2)c2ccc(N(C)C)cc2)cc1 [Crystal violet]	-3.37%
NNC(=O)c1ccncc1 [Isoniazid (Tubizid)]	45.6%
Cn1nnc2c(C(N)=O)ncn2c1=O [Methazolastone]	14.3%
CC[C@@]1([C@@H]2O[C@@H]([C@H]3O[C@@](O)(CO)[C@H](C)C[C@@H]3C)C[C@@H]2C)CC[C@H]([C@]2(C)CC[C@]3(C[C@H](O)[C@@H](C)[C@@H]([C@@H](C)[C@@H](OC)[C@H](C)C(=O)O)O3)O2)O1 [Monensin sodium salt (Coban)]	3.22%
CCN(CC)C(=S)SSC(=S)N(CC)CC [Disulfiram (Antabuse)]	-13.6%
CN(C)CC/C=C1/c2ccccc2COc2ccc(CC(=O)O)cc21 [Olopatadine hydrochloride (Opatanol)]	-8.38%
O=c1[nH]c2ccccc2n1CCCN1CCC(n2c(=O)[nH]c3cc(Cl)ccc32)CC1 [Domperidone (Motilium)]	-9.12%
O=C1c2c(O)cccc2[C@H]([C@@H]2O[C@H](CO)[C@@H](O)[C@H](O)[C@H]2O)c2cc(CO)cc(O)c21 [Aloin (Barbaloin)]	0.91%
NC(=O)NO [Hydroxyurea (Cytodrox)]	-2.47%
CCOC(=O)C1=C(COCCN)NC(C)=C(C(=O)OC)C1c1ccccc1Cl (stereo not drawn) [Amlodipine besylate (Norvasc)]	-2.44%
CO[C@H]1/C=C/O[C@@]2(C)Oc3c(C)c(O)c4c(O)c(c5c(nc6cc(C)ccn65)c4c3C2=O)NC(=O)/C(C)=C\C=C\[C@H](C)[C@H](O)[C@@H](C)[C@@H](O)[C@@H](C)[C@H](OC(C)=O)[C@@H]1C [Rifaximin (Xifaxan)]	1.93%
C[C@@H]1O[C@@H](OC[C@H]2O[C@@H](Oc3c(-c4ccc(O)c(O)c4)oc4cc(O)cc(O)c4c3=O)[C@H](O)[C@@H](O)[C@@H]2O)[C@H](O)[C@H](O)[C@H]1O [Rutin (Rutoside)]	-3.76%
NC[C@@H]1O[C@H](O[C@H]2[C@@H](O)[C@H](O[C@@H]3[C@@H](O)[C@H](N)C[C@H](N)[C@H]3O[C@H]3O[C@H](CN)[C@@H](O)[C@H](O)[C@H]3N)O[C@@H]2CO)[C@H](N)[C@@H](O)[C@@H]1O [Neomycin sulfate]	-1.47%
COc1cc(C=O)ccc1O [Vanillin]	-1.73%
CC[C@H](CC[C@@H](C)[C@H]1CC[C@H]2[C@@H]3CC=C4C[C@@H](O)CC[C@]4(C)[C@H]3CC[C@]12C)C(C)C [β-Sitosterol]	-0.368%
